These results are taken from PMC6199744, “Development of Chemical Proteomics for the Folateome and Analysis of the Kinetoplastid Folateome” (ACS Infectious Diseases, 2018).

Common to all, as to type: binding
Assay [1] has as its target T1, HeLa cell extract proteins (Homo sapiens, UniProt P26641).
T1 construct: endogenous in cells; host or cells: HeLa cell extract
The settings on record: HeLa; protein EEF1G.

For assay [2], the target named is T2, HeLa cell extract proteins (Homo sapiens, UniProt P09496).
T2 construct: endogenous in cells; host or cells: HeLa cell extract
T2 sequence (P09496 1-248): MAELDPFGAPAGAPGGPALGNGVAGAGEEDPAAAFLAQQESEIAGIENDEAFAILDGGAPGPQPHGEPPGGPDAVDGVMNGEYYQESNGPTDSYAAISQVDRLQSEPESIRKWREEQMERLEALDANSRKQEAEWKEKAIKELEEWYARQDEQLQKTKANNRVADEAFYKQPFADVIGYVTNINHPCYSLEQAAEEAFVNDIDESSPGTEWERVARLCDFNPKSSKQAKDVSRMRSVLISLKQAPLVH
The settings on record: HeLa; captured protein CLTA.

For assay [3], the target named is T3, HeLa cell extract proteins (Homo sapiens, UniProt P62633).
T3 construct: endogenous in cells; host or cells: HeLa cell extract
T3 sequence (P62633 whole entry): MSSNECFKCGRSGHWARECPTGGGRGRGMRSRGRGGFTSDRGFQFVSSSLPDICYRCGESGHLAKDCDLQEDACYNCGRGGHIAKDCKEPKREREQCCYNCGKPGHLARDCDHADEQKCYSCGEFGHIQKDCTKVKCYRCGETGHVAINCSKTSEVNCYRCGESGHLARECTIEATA
The settings on record: HeLa; captured protein CNBP.

The target of assay [4] is T4, HeLa cell extract proteins (Homo sapiens, UniProt P63208).
T4 construct: endogenous in cells; host or cells: HeLa cell extract
T4 sequence (P63208 whole entry): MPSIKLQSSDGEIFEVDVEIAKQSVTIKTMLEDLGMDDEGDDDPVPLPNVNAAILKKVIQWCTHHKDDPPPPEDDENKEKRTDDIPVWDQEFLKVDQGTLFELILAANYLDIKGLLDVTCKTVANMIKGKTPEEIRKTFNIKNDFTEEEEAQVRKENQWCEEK
The settings on record: HeLa; captured protein SKP1.

Assay [5] deals with T5, HeLa cell extract proteins (Homo sapiens, UniProt Q96BY9).
T5 construct: endogenous in cells; host or cells: HeLa cell extract
T5 sequence (Q96BY9 31-339): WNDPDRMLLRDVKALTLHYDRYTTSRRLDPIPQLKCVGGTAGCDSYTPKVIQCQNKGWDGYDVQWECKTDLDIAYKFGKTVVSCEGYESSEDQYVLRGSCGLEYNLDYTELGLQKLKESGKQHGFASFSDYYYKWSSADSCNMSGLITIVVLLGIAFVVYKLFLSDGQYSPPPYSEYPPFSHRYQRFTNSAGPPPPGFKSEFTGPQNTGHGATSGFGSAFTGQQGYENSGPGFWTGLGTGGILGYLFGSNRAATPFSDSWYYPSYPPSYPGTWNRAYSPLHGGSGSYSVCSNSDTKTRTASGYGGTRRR
The settings on record: HeLa; protein TMEM66 (TRANSMEMBRANE PROTEIN 66 PRECURSOR).

Assay [6] addresses T6, HeLa cell extract proteins (Homo sapiens, UniProt P33992).
T6 construct: endogenous in cells; host or cells: HeLa cell extract
T6 sequence (P33992 1-734): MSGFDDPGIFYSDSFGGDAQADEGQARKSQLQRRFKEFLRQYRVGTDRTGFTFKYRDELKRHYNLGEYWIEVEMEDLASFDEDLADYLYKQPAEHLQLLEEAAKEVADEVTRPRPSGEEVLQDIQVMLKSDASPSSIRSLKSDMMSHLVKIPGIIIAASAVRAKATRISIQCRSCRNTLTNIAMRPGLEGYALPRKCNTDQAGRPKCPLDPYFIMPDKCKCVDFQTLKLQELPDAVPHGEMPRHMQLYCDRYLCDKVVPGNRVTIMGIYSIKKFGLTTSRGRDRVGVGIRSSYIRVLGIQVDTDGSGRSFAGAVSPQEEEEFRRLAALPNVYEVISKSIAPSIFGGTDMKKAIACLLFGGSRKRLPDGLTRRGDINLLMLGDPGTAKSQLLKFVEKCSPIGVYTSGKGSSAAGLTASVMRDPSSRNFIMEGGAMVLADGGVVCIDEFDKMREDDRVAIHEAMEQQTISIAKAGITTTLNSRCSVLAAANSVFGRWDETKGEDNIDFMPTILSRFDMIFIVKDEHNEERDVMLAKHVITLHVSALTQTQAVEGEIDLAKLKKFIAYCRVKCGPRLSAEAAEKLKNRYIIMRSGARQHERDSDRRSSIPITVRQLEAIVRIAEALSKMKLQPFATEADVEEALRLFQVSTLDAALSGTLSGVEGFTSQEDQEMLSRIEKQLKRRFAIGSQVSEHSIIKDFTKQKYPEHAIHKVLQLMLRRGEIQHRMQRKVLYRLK
The settings on record: HeLa; protein MCM5.

For assay [7], the target named is T7, HeLa cell extract proteins (Homo sapiens, UniProt P07237).
T7 construct: endogenous in cells; host or cells: HeLa cell extract
T7 sequence (P07237 18-508): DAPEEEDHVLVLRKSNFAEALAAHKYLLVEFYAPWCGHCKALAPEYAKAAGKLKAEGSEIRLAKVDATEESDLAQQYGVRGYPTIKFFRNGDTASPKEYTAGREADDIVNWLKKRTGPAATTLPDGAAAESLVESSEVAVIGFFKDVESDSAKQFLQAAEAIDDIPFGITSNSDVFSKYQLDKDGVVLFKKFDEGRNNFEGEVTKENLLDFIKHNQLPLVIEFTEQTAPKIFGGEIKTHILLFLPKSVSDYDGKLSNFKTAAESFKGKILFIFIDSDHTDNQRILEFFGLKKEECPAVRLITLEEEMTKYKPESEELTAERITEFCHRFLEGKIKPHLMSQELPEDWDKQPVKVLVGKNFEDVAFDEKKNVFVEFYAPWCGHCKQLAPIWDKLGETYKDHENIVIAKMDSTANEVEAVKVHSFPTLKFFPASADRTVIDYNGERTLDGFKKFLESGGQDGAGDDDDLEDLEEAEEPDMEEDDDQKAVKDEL
The settings on record: HeLa; protein P4HB.

For assay [8], the target named is T8, HeLa cell extract proteins (Homo sapiens, UniProt Q9NYU2).
T8 construct: endogenous in cells; host or cells: HeLa cell extract
T8 sequence (Q9NYU2 43-1555): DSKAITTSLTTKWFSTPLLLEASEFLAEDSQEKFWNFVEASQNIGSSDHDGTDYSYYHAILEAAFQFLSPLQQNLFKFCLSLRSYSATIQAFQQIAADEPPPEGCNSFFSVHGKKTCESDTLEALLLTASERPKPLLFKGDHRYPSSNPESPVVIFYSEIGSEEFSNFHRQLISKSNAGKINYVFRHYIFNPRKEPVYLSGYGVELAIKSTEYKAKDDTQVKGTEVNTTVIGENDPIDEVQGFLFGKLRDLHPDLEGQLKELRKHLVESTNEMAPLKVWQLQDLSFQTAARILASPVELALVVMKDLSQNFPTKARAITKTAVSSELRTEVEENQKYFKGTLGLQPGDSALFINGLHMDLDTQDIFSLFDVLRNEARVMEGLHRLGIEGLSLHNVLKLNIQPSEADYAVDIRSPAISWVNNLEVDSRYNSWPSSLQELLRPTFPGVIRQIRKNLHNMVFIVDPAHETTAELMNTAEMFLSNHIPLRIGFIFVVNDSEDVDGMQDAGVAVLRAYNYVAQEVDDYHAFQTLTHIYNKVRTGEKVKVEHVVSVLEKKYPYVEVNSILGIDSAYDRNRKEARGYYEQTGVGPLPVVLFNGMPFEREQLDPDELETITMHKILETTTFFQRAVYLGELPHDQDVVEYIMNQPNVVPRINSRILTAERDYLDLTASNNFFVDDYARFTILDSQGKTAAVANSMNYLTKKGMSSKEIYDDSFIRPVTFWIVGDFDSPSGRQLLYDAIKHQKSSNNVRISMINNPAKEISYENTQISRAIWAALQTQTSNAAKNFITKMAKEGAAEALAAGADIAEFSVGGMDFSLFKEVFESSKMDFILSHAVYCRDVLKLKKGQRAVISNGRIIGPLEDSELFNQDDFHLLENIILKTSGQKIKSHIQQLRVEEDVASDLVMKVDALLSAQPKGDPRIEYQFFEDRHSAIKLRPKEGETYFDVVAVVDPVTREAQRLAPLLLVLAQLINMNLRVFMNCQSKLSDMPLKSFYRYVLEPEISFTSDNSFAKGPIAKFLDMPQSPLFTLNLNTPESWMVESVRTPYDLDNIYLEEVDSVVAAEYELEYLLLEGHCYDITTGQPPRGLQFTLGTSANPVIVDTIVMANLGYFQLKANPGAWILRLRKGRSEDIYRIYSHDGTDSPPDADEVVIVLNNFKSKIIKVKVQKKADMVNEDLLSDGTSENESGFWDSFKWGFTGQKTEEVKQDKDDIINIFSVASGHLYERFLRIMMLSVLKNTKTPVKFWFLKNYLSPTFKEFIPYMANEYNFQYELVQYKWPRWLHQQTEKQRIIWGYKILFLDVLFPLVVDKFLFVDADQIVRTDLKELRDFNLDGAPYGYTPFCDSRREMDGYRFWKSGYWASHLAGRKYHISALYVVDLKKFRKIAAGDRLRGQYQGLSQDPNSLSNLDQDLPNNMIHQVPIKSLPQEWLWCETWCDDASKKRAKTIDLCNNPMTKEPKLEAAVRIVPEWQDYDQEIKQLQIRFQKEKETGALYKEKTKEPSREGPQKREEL
The settings on record: HeLa; protein UGCGL1.

Assay [9] has as its target T9, HeLa cell extract proteins (Homo sapiens, UniProt P15559).
T9 construct: endogenous in cells; host or cells: HeLa cell extract
The settings on record: protein NQO1; HeLa.

Assay [10] has as its target T10, HeLa cell extract proteins (Homo sapiens, UniProt P36639).
T10 construct: endogenous in cells; host or cells: HeLa cell extract
The settings on record: protein NUDT1; HeLa.

Assay [11] concerns the target T11, HeLa cell extract proteins (Homo sapiens, UniProt P62979).
T11 construct: endogenous in cells; host or cells: HeLa cell extract

In assay [12] the target is T12, HeLa cell extract proteins (Homo sapiens, UniProt P17844).
T12 construct: endogenous in cells; host or cells: HeLa cell extract
T12 sequence (P17844 whole entry): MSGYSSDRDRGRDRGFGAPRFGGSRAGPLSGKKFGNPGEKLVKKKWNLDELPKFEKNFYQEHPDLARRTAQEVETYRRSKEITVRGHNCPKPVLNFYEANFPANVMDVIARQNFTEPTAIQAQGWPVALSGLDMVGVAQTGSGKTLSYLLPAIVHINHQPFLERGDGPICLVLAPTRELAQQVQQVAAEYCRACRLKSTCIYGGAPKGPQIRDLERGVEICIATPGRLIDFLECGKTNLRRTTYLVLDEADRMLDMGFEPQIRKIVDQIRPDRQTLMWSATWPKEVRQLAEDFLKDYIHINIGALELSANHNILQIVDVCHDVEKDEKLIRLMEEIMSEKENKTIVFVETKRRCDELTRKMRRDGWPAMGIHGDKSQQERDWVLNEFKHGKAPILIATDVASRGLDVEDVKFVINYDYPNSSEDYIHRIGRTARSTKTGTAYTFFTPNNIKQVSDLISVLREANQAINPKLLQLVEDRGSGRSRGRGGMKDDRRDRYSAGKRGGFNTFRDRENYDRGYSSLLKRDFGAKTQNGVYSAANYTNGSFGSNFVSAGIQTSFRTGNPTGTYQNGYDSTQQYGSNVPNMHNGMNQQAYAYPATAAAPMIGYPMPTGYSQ
The settings on record: HeLa; protein DDX5 (PROBABLE ATP-DEPENDENT RNA HELICASE DDX5).

In assay [13] the target is T13, HeLa cell extract proteins (Homo sapiens, UniProt P49189).
T13 construct: endogenous in cells; host or cells: HeLa cell extract
The settings on record: HeLa; captured protein ALDH9A1.

For assay [14], the target named is T14, HeLa cell extract proteins (Homo sapiens, UniProt P46940).
T14 construct: endogenous in cells; host or cells: HeLa cell extract
T14 sequence (P46940 whole entry): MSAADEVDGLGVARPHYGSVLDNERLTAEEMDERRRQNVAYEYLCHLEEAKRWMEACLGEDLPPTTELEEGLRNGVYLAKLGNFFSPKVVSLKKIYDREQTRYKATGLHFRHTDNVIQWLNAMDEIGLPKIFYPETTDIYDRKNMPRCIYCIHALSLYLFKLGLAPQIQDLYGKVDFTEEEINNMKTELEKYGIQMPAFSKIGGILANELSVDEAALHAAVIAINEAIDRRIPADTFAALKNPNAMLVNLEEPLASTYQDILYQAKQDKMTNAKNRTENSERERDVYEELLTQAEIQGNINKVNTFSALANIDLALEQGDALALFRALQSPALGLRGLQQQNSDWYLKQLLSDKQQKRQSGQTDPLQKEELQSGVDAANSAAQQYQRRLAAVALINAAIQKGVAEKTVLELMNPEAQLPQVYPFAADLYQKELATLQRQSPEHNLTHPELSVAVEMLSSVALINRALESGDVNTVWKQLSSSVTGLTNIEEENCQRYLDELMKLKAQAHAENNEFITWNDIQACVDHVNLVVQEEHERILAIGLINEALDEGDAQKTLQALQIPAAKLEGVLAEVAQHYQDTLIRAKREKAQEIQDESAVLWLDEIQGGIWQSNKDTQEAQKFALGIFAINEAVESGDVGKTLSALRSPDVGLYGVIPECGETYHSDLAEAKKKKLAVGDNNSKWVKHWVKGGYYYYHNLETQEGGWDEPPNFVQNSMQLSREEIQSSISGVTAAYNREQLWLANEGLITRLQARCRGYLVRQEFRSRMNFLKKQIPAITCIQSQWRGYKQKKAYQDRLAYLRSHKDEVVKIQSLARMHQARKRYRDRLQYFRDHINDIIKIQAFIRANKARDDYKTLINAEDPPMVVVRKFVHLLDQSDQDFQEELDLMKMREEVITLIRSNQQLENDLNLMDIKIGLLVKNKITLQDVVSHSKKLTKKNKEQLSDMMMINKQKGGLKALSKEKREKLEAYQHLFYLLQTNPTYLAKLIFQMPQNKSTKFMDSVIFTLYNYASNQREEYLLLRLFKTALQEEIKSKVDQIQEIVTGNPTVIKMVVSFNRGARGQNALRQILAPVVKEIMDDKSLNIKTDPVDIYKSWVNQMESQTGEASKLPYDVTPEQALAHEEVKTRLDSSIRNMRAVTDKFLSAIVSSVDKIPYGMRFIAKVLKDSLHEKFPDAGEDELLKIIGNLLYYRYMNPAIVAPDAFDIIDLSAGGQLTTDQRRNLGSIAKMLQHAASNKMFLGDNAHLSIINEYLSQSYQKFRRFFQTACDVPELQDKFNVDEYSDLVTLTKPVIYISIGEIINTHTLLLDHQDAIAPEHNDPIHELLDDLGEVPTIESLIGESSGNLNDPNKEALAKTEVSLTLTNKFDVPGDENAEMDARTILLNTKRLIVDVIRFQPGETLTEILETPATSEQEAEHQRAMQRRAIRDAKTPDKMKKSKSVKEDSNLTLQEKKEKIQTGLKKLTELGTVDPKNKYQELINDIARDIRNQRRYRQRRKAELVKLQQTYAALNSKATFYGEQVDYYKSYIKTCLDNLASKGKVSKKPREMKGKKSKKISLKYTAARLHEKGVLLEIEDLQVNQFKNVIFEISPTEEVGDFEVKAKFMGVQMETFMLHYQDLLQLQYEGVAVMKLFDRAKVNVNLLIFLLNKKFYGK
The settings on record: HeLa; protein IQGAP1.

The target of assay [15] is T15, HeLa cell extract proteins (Homo sapiens, UniProt Q5T8D3).
T15 construct: endogenous in cells; host or cells: HeLa cell extract
T15 sequence (Q5T8D3 1-534): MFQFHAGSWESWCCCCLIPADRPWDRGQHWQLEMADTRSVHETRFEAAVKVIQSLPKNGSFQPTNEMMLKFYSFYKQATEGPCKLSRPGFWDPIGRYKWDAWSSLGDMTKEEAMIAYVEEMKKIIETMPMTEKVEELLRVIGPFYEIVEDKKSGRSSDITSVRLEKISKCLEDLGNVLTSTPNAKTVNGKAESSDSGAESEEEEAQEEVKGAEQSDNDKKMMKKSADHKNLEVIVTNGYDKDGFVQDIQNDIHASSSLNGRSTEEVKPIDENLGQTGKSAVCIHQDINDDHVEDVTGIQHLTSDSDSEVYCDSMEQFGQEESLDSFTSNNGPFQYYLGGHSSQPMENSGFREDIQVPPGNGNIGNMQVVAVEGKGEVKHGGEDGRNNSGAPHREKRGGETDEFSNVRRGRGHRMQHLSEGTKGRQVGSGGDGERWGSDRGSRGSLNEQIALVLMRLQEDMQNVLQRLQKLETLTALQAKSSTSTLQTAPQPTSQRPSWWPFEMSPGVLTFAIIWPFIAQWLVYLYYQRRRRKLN
The settings on record: HeLa; captured protein ACBD5.

The structures appear in SMILES notation. Where two headings read alike, the source gives them in different places.

T9 sequence (P15559 whole entry): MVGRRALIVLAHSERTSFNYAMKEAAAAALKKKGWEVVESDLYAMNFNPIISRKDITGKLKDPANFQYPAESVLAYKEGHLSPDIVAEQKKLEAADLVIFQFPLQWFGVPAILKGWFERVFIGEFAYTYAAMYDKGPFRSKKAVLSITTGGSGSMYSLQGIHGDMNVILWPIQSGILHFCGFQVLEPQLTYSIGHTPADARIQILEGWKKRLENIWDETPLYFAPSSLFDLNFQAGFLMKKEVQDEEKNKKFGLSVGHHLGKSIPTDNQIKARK

For `NCCOCCOCC(=O)Nc1nc2ncc(CNc3ccc(C(=O)NC(CCC(=O)O)C(=O)O)cc3)nc2c(=O)[nH]1` (stereo not drawn) [compound 6], the “fold changes relative to vehicle control” value worked out at 1.15 in [1]; 1.48 in assay [2]; 1.3 in [3]; 0.97 in assay [4]; 0.85 in assay [5]; 1.03 in assay [6]. Further, the “fold changes relative to vehicle control” value was 1.19 in assay [7]; 1.01 in assay [8]; 0.6 in assay [9]; 1.16 in assay [10]; 1.51 in [11] (HeLa, protein RPS27A (UBIQUITIN AND RIBOSOMAL PROTEIN S27A PRECURSOR)); 1.15 in [12]. In addition, the “fold changes relative to vehicle control” value in assay [13] was 0.92; in [14], 1.25; in assay [15] it was 1.09.
Take `NCCCNc1ccc(C(=O)NC(CCC(=O)O)C(=O)O)cc1` (stereo not drawn) [compound 7]: the “fold changes relative to vehicle control” value in assay [1] stood at 0.94; in assay [2] it was 1.4; in assay [3] it was 1.04; in assay [4], 1.01; in [5], 0.87; in assay [6], 0.98. For the same molecule, the “fold changes relative to vehicle control” value is recorded as 0.92 in assay [7]; 1.05 in assay [8]; 2.36 in assay [9]; 1.2 in [10]; 1.22 in assay [11]; 0.93 in [12]. Besides, the “fold changes relative to vehicle control” value in [13] was 0.98; in [14] it was 1.18; in [15] it was 1.03.
